In ChEMBL document CHEMBL1138483, “Toward second generation hepatitis C virus NS3 serine protease inhibitors: discovery of novel P4 modified analogues with improved potency and pharmacokinetic profile” (J Med Chem, 2009) one finds Ki and EC90 data, which are given here for 30 molecules.

The nature of experiment [1]: Binding affinity to HCV NS3 protease by spectrophotometry. The arrangement: species or system Hepacivirus hominis.
The next experiment relates to Hepatitis C virus. Nature of the experiment: Antiviral activity against HCV replication in human hepatoma cells by replicon assay. The experiment is classed as functional, Hepacivirus hominis. For orientation: In antiviral work, replicon cells carry a viral genome segment that copies itself.

SMILES strings stand for the structures.

As usually defined, the Ki is a dissociation constant, usually derived from enzyme kinetics or from competition with a known ligand. A low value points to tighter binding. The molecule `C=CCNC(=O)C(=O)C(CCC)NC(=O)[C@@H]1[C@@H]2[C@H](CN1C(=O)[C@@H](NC(=O)N[C@H](COC(=O)NCC)C1CCCCC1)C1(C)CCCCC1)C2(C)C` (stereo partly specified) gave a Ki in experiment [1] of 84 nM.
In general, EC90 refers to the concentration at which the effect reaches the 90% level. Low readings indicate an effect from little substance, high ones a need for much substance. Take `C=CCNC(=O)C(=O)C(CCCC)NC(=O)[C@@H]1[C@@H]2[C@H](CN1C(=O)[C@@H](NC(=O)N[C@H](COC(=O)NCC)C(C)(C)C)C1Cc3ccccc3C1)C2(C)C` (stereo partly specified): the inhibitory constant (Ki) in experiment [1] was 23 nM. Also, the 90% effect level in the experiment on Hepatitis C virus (EC90) was put at 400 nM.
In experiment [1], `C#CCCC(NC(=O)[C@@H]1[C@@H]2[C@H](CN1C(=O)[C@@H](NC(=O)N[C@H](COC(=O)NCC)C(C)(C)C)C1(C)CCCCC1)C2(C)C)C(=O)C(=O)NCC` (stereo partly specified) came in with a Ki of 21 nM. In the experiment with Hepatitis C virus, this molecule gave an EC90 of 200 nM.
For the molecule `C=CCNC(=O)C(=O)C(CC1CC1)NC(=O)[C@@H]1[C@@H]2[C@H](CN1C(=O)[C@@H](NC(=O)N[C@H](COC(=O)NCC)C(C)(C)C)C1Cc3ccccc3C1)C2(C)C` (stereo partly specified), in experiment [1], the Ki was 50 nM. In addition, in the experiment on Hepatitis C virus, the EC90 was found to be 400 nM.
In the case of `CC(C)(C)[C@H](NC(=O)N[C@H](COCc1ccccc1)C(C)(C)C)C(=O)N1C[C@H]2[C@@H]([C@H]1C(=O)NC(CC1CCC1)C(=O)C(N)=O)C2(C)C` (stereo partly specified), in experiment [1], the inhibition constant Ki was determined as 130 nM.
Regarding `CCNC(=O)OC[C@@H](NC(=O)N[C@H](C(=O)N1C[C@H]2[C@@H]([C@H]1C(=O)NC(CC1CCC1)C(=O)C(N)=O)C2(C)C)C1(C)CCCCC1)C(C)(C)C` (stereo partly specified), the affinity in experiment [1], expressed as Ki, was 8 nM. Moreover, the EC90 in the experiment on Hepatitis C virus came out at 150 nM.
`CC(C)(C)OC[C@@H](NC(=O)N[C@H](C(=O)N1C[C@H]2[C@@H]([C@H]1C(=O)NC(CC1CCC1)C(=O)C(N)=O)C2(C)C)C1(C)CCCCC1)C(C)(C)C` (stereo partly specified) showed an inhibition constant Ki in experiment [1] of 100 nM.
`COC[C@@H](NC(=O)N[C@H](C(=O)N1C[C@H]2[C@@H]([C@H]1C(=O)NC(CC1CCC1)C(=O)C(N)=O)C2(C)C)C1(C)CCCCC1)C(C)C` (stereo partly specified) gave a Ki in experiment [1] of 12 nM. This molecule also returned an EC90 with Hepatitis C virus of 200 nM.
With `CCNC(=O)OC[C@@H](NC(=O)N[C@H](C(=O)N1C[C@H]2[C@@H]([C@H]1C(=O)NC(CC1CCC1)C(=O)C(N)=O)C2(C)C)C(C)(C)C)C(C)(C)C` (stereo partly specified), the Ki in experiment [1] worked out at 9 nM. The molecule further came in with an EC90 in the experiment with Hepatitis C virus of 250 nM.
`C=CCNC(=O)C(=O)C(CCC)NC(=O)[C@@H]1[C@@H]2[C@H](CN1C(=O)[C@@H](NC(=O)N[C@H](COC(=O)NCC(C)C)C(C)(C)C)C1(C)CCCCC1)C2(C)C` (stereo partly specified): the Ki in experiment [1] amounted to 58 nM. That is a double-digit nanomolar value.
Consider `COC[C@@H](NC(=O)N[C@H](C(=O)N1C[C@H]2[C@@H]([C@H]1C(=O)NC(CC1CCC1)C(=O)C(N)=O)C2(C)C)C1CCCCC1)C(C)(C)C` (stereo partly specified), for which, in experiment [1], the Ki worked out at 30 nM. The 90% effect level with Hepatitis C virus (EC90) was put at 300 nM.
On the same counts, the results for `CCNC(=O)OC[C@@H](NC(=O)N[C@H](C(=O)N1C[C@H]2[C@@H]([C@H]1C(=O)NC(CC1CC1)C(=O)C(N)=O)C2(C)C)C1Cc2ccccc2C1)C(C)(C)C` (stereo partly specified) are 7 nM and 200 nM.
In turn, `C=CCNC(=O)C(=O)C(CCC)NC(=O)[C@@H]1[C@@H]2[C@H](CN1C(=O)[C@@H](NC(=O)N[C@H](COC(=O)NCC1CCCCC1)C(C)(C)C)C1(C)CCCCC1)C2(C)C` (stereo partly specified) came in with a Ki in experiment [1] of 130 nM.
Molecule `CCNC(=O)OC[C@@H](NC(=O)N[C@H](C(=O)N1C[C@H]2[C@@H]([C@H]1C(=O)NC(CC1CCC1)C(=O)C(N)=O)C2(C)C)C1CCCCC1)C(C)(C)C` (stereo partly specified) returned a Ki in experiment [1] of 10 nM. In addition, the EC90 with Hepatitis C virus turned out to be 600 nM.
`C=CCNC(=O)C(=O)C(CCCC)NC(=O)[C@@H]1[C@@H]2[C@H](CN1C(=O)[C@@H](NC(=O)N[C@H](COC(=O)NCC)C(C)(C)C)C1(C)CCCCC1)C2(C)C` (stereo partly specified) displayed a Ki in experiment [1] of 28 nM. The same molecule registered an EC90 in the experiment on Hepatitis C virus of 400 nM.
On to `CC(C)(C)OCC1(NC(=O)N[C@H](C(=O)N2C[C@H]3[C@@H]([C@H]2C(=O)NC(CC2CCC2)C(=O)C(N)=O)C3(C)C)C2(C)CCCCC2)CCCCC1` (stereo partly specified), for which, in experiment [1], the Ki was determined as 120 nM.
In experiment [1], `C=CCNC(=O)C(=O)C(CCC)NC(=O)[C@@H]1[C@@H]2[C@H](CN1C(=O)[C@@H](NC(=O)N[C@H](COC(=O)NCC)C(C)(C)C)C1(C)CCCCC1)C2(C)C` (stereo partly specified) came in with a Ki of 28 nM. This molecule also registered an EC90 in the experiment with Hepatitis C virus of 150 nM.
In turn, `C#CCCC(NC(=O)[C@@H]1[C@@H]2[C@H](CN1C(=O)[C@@H](NC(=O)N[C@H](COC(=O)NCC1CCCCC1)C(C)(C)C)C1(C)CCCCC1)C2(C)C)C(=O)C(=O)NCC=C` (stereo partly specified) displayed a Ki in experiment [1] of 20 nM. In addition, it took 250 nM to reach the 90% level in the experiment with Hepatitis C virus (EC90).
Taken in the same sequence, the figures for `C#CCCC(NC(=O)[C@@H]1[C@@H]2[C@H](CN1C(=O)[C@@H](NC(=O)N[C@H](COC(=O)NCC)C(C)(C)C)C1(C)CCCCC1)C2(C)C)C(=O)C(=O)NCCC` (stereo partly specified) were 16 nM and 200 nM.
Taken in the same sequence, the figures for `CC(C)(C)NC(=O)OC[C@@H](NC(=O)N[C@H](C(=O)N1C[C@H]2[C@@H]([C@H]1C(=O)NC(CC1CCC1)C(=O)C(N)=O)C2(C)C)C1Cc2ccccc2C1)C(C)(C)C` (stereo partly specified) were 12 nM and 200 nM.
Taken in the same sequence, the figures for `CC(C)NC(=O)OC[C@@H](NC(=O)N[C@H](C(=O)N1C[C@H]2[C@@H]([C@H]1C(=O)NC(CC1CCC1)C(=O)C(N)=O)C2(C)C)C1Cc2ccccc2C1)C(C)(C)C` (stereo partly specified) were 9 nM and 200 nM.
On to `COC[C@@H](NC(=O)N[C@H](C(=O)N1C[C@H]2[C@@H]([C@H]1C(=O)NC(CC1CCC1)C(=O)C(N)=O)C2(C)C)C1(C)CCCCC1)C(C)(C)C` (stereo partly specified), for which the affinity in experiment [1], expressed as Ki, was 24 nM. The molecule further returned an EC90 with Hepatitis C virus of 150 nM.
For the molecule `C=CCNC(=O)C(=O)C(CCC)NC(=O)[C@@H]1[C@@H]2[C@H](CN1C(=O)[C@@H](NC(=O)N[C@H](COC(=O)NCC1CC1)C(C)(C)C)C1(C)CCCCC1)C2(C)C` (stereo partly specified), in experiment [1], the Ki came out at 32 nM. The EC90 in the experiment with Hepatitis C virus amounted to 100 nM.
Taken in the same sequence, the figures for `COC[C@@H](NC(=O)N[C@H](C(=O)N1C[C@H]2[C@@H]([C@H]1C(=O)NC(CC1CCC1)C(=O)C(N)=O)C2(C)C)C1(C)CCCC1)C(C)(C)C` (stereo partly specified) were 22 nM and 400 nM.
Turning to `C#CCCC(NC(=O)[C@@H]1[C@@H]2[C@H](CN1C(=O)[C@@H](NC(=O)N[C@H](COC(=O)NCC)C(C)(C)C)C1Cc3ccccc3C1)C2(C)C)C(=O)C(=O)NCC=C` (stereo partly specified), the affinity in experiment [1] corresponds to a Ki of 10 nM. For the same molecule, the EC90 in the experiment with Hepatitis C virus was determined as 550 nM.
On the same counts, the results for `CN(C)C(=O)OC[C@@H](NC(=O)N[C@H](C(=O)N1C[C@H]2[C@@H]([C@H]1C(=O)NC(CC1CCC1)C(=O)C(N)=O)C2(C)C)C1Cc2ccccc2C1)C(C)(C)C` (stereo partly specified) are 23 nM and 300 nM.
In experiment [1], `COC[C@@](C)(CC(C)C)NC(=O)N[C@H](C(=O)N1C[C@H]2[C@@H]([C@H]1C(=O)NC(CC1CCC1)C(=O)C(N)=O)C2(C)C)C1(C)CCCCC1` (stereo partly specified) came in with a Ki of 50 nM.
The same measure, in the same setting: with `CCC[C@@](C)(COC)NC(=O)N[C@H](C(=O)N1C[C@H]2[C@@H]([C@H]1C(=O)NC(CC1CCC1)C(=O)C(N)=O)C2(C)C)C1(C)CCCCC1` (stereo partly specified) the figure was 170 nM.
`CNC(=O)OC[C@@H](NC(=O)N[C@H](C(=O)N1C[C@H]2[C@@H]([C@H]1C(=O)NC(CC1CCC1)C(=O)C(N)=O)C2(C)C)C1Cc2ccccc2C1)C(C)(C)C` (stereo partly specified) showed a Ki in experiment [1] of 9 nM. The molecule also yielded an EC90 in the experiment with Hepatitis C virus of 200 nM.
`COC[C@@H](NC(=O)N[C@H](C(=O)N1C[C@H]2[C@@H]([C@H]1C(=O)NC(CC1CCC1)C(=O)C(N)=O)C2(C)C)C(C)(C)C)C(C)(C)C` (stereo partly specified) showed a Ki in experiment [1] of 120 nM.
